{"source": "patent US20130210024A1", "about": "“COMBINATION TREATMENT OF CANCER” (Agency for Science, Technology and Research, priority 2010, published 2013)", "key": {"[1]": {"test_system": "FBXO32, p21, p-Chk1", "assay": "Immunoblot analysis of FBXO32, p21 and Chk1 phosphorylation after DZNep with ADR or ETO", "type": "cell-based, human", "description": "(§1) The human colorectal cancer HCT116 cells were kindly provided by Dr. Bert Vogelstein (John Hopkins University, MD). Other cell lines used in this study, including human osteosarcoma U2OS and Saos-2 and breast cancer MCF7 were obtained from the American Type Culture Collection (ATCC) and maintained in Dulbecco's modified Eagle medium (DMEM) supplemented with 10% fetal bovine serum (FBS) and antibiotics in a 37° C. humidified incubator containing 5% CO2. Human breast epithelial MCF10A cells were obtained from ATCC and maintained as recommended (Kadota et al 2010). Adramycin (ADR), Etopside (ETO), Nocodazole (Noco), proteasomal inhibitors MG132 and MG115 were purchased from Sigma-Aldrich.\nProtein extracts were prepared by lysis in RIPA buffer containing (50 mM Tris-HCl, pH 7.4, 150 mM NaCl, 1% Nonidet P-40, 0.5% sodium deoxycholate, 0.1% SDS, 1 mM EDTA, 50 mM NaF, 0.1 mM Na3VO4) and protease inhibitor cocktail (Roch). Lysates were resolved by SDS-PAGE, transferred onto a immobilon membrane (Millipore) and probed with indicated antibodies. For co-immunoprecipitation experiments, cells were lysed and incubated with the indicated antidodies and protein G-seperose beads overnight at 4° C. Beads were washed four times with lysis buffer. The bound proteins were dissolved in SDS sample buffer, resolved by SDS-PAGE, and immunoblotted with the indicated antibodies. Where indicated, proteosome inhibitors MG-132 (5 μM) or MG-115 (20 μM) were used to treat cells for 8 h before protein extraction. Antibodies used in this study include: anti-EZH2 (Cell Signaling), anti-p21 (Santa Cruz), anti-FBXO32 (Santa Cruz), anti-p53 (Santa Cruz), anti-MDM2 (Santa Cruz), anti-phospho-Chk1 (Cell signaling), anti-Chk1 (Santa Cruz), anti-phospho-Chk2 (Cell signaling), anti-Chk2 (Upstate), anti-H3 (Cell signaling), anti-PARP (Cell Signaling), anti-H3K27me3 (Upstate), anti-actin mouse monoclonal (Sigma)."}, "[2]": {"test_system": "U2OS cells", "assay": "FACS cell cycle / apoptosis analysis in U2OS cells, EZH2 RNA interference plus ADR or ETO", "type": "cell-based, human", "details": "control (non-knockdown) U2OS cells treated with the DNA damaging agent alone; FIG. 1A", "description": "as §1\nSpecific siRNA oligos targeting EZH2 (as described above) and FBXO32 (FBXO32 siRNA: 5_-GTCACATCCTTTCCTGGAA-3_) mRNAs were used. The non-targeting control was purchased from Dharmacon (Lafayett, Colo.). For EZH2 knockdown, a sequential twice knockdown is performed to secure efficient gene silencing. […]\nCells were harvested and fixed in 70% ethanol. […] The stained cells were analyzed for DNA content by fluorescence-activated cell sorting (FACS) in a FACS Calibur (Becton Dickinson Instrument, San Jose, Calif.). Cell cycle fractions were quantified using the CellQuest software (Becton Dickinson). […]"}, "[3]": {"test_system": "EZH2 complex", "details": "cancer cells; previously shown (Tan et al., 2007); cited from earlier work"}, "[4]": {"test_system": "p21 mRNA", "assay": "p21 mRNA level (Taqman quantitative real-time PCR)", "type": "cell-based, human", "details": "DZNep with ADR or ETO; data not shown", "description": "Total RNA was isolated using Trizol (Invitrogen) and purified with the RNeasy Mini Kit (Qiagen). Reverse transcription was performed using an RNA Amplification kit (Ambion). Quantitative real-time PCR was assessed using the PRISM 7900 Sequence Detection System (Applied Biosystems) with specific probes from Applied Biosystem. Samples were normalized to the levels of GAPDH mRNA."}, "[5]": {"test_system": "U2OS, HCT116, Saos-2 and p53-deficient HCT116 cells", "assay": "FACS cell cycle / apoptosis analysis, DZNep combined with ADR or ETO in cancer cells", "type": "cell-based, human", "description": "as §1\n(§2) Cells were harvested and fixed in 70% ethanol. Fixed cells were stained with propidium iodide (50 μg/mL) after treatment with RNase (100 μg/mL). The stained cells were analyzed for DNA content by fluorescence-activated cell sorting (FACS) in a FACS Calibur (Becton Dickinson Instrument, San Jose, Calif.). Cell cycle fractions were quantified using the CellQuest software (Becton Dickinson). For synchronization experiment, HCT116 cells expressing FBXO32 or empty vector were treated with Nocodazole (400 ng/ml) for 16 h, mitotically arrested cells were treated with ADR and then subject to FACS for cell cycle analysis."}, "[6]": {"test_system": "non-transformed MCF-10A, IMR90 and RWEP cells", "assay": "ADR or ETO-induced apoptosis in non-transformed cells with DZNep", "type": "cell-based, human", "details": "data not shown", "description": "as §1, §2"}}, "note": "Residues, ends and D or L forms follow the SMILES beside them. *: point of attachment. Cbz = O=C(OCc1ccccc1)*"}
{"compound": "CC(C)C[C@@H](C=O)NC(=O)[C@H](CC(C)C)NC(=O)[C@H](CC(C)C)NC(=O)OCc1ccccc1", "note": "[MG132] (Cbz-Leu-Leu-Leu-aldehyde)", "values": [{"measurement": "p21 protein downregulation by DZNep with ADR or ETO, effect of proteasome inhibitor", "setting": "[1]; MG132 added, data not shown", "result": "prevented"}]}
{"compound": "COc1cccc2c1C(=O)c1c(O)c3c(c(O)c1C2=O)C[C@@](O)(C(=O)CO)C[C@@H]3O[C@H]1C[C@H](N)[C@H](O)[C@H](C)O1", "note": "[Adriamycin]", "values": [{"measurement": "cell cycle arrest / apoptosis in control cells", "setting": "[2]", "result": "mainly cell cycle arrested with little apoptosis"}]}
{"compound": "Nc1nccc2c1ncn2[C@@H]1C=C(CO)[C@@H](O)[C@H]1O", "note": "[DZNep, 3-Deazaneplanocin A]", "values": [{"measurement": "depletion of EZH2 complex", "setting": "[3]", "result": "can deplete EZH2 complex"}, {"measurement": "p21 mRNA as cause of p21 protein downregulation", "setting": "[4]", "result": "not due to a decrease in p21 mRNA"}, {"measurement": "effect of DZNep on DNA damage-induced apoptosis, p21 and p-Chk1 when FBXO32 is knocked down", "setting": "[5]; HCT116 cells with FBXO32 knockdown, FIGS. 4E, 4F", "result": "largely abolished when FBXO32 was knockdown"}, {"measurement": "checkpoints activation (FACS)", "setting": "[5]; combination of DZNep with ADR or ETO, HCT116 or U2OS cells, FIG. 4A", "result": "abrogates checkpoints activation"}, {"measurement": "checkpoints (FACS), p53-deficient cells", "setting": "[5]; combination of DZNep with ADR or ETO, p53-deficient HCT116 or Saos-2 cells, FIG. 4C", "result": "abrogates checkpoints"}, {"measurement": "effect on ADR or ETO-induced cell cycle arrest / apoptosis", "setting": "[5]; pretreatment with DZNep, then ADR or ETO, p53-proficient U2OS and HCT116, p53-deficient Saos-2 and HCT116 cells, FIGS. 4A, 4C", "result": "converted ADR or ETO-induced cell cycle arrest to marked apoptosis"}, {"measurement": "promotion of ADR or ETO-induced apoptosis in non-transformed cells", "setting": "[6]", "result": "did not promote"}, {"measurement": "p21 and/or p-Chk1 induction by ADR or ETO", "setting": "[1]; DZNep with ADR or ETO, U2OS, HCT116, Saos-2, p53-deficient HCT116, FIGS. 4B, 4D", "result": "largely abolished"}, {"measurement": "FBXO32 induction", "setting": "[1]; EZH2 depletion by DZNep, U2OS, HCT116, Saos-2, p53-deficient HCT116, FIGS. 4B, 4D", "result": "accompanied with FBXO32 induction"}, {"measurement": "ADR or ETO-induced p21 accumulation and Chk1 phosphorylation", "setting": "[1]; combination of DZNep with ADR or ETO, HCT116 and U2OS cells, FIG. 4B", "result": "abolishes"}, {"measurement": "DNA damage induced p21 accumulation and Chk1 phosphorylation, p53-deficient cells", "setting": "[1]; combination of DZNep with ADR or ETO, p53-deficient HCT116 and Saos-2 cells, FIG. 4D", "result": "abolishes"}]}
{"compound": "COc1cc([C@@H]2c3cc4c(cc3[C@@H](O[C@@H]3O[C@@H]5CO[C@@H](C)O[C@H]5[C@H](O)[C@H]3O)[C@H]3COC(=O)[C@H]23)OCO4)cc(OC)c1O", "note": "[Etoposide]", "values": [{"measurement": "cell cycle arrest / apoptosis in control cells", "setting": "[2]", "result": "mainly cell cycle arrested with little apoptosis"}]}
